# Tested on: 699152-130-R-J1-PDC complex spheroid viability
# Experiment: Anticancer human tumor 699152-130-R-J1-PDC patient-derived pancreatic carcinoma cell line growth inhibition [POLQ]
# Conditions: for IC50: curve of first compound; for viability, T/C: stronger effect = lower value
# Outline: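 PDC + HUVEC + MSC complex spheroids; POLQ inhibitors ± partner drugs; top conc. at/near clinical Cmax, else 10 microM (SN-38 1 microM), half-log dilutions; 37 degrees C, 5% CO2.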
# [1] = second compound 0.0316 µM, first compound 0.0316 µM
# [2] = second compound 0.0316 µM, first compound 0.1 µM
# [3] = second compound 0.0316 µM, first compound 0.316 µM
# [4] = second compound 0.0316 µM, first compound 1 µM
# [5] = second compound 0.0316 µM, first compound 3.16 µM
# [6] = second compound 0.0316 µM, first compound 10 µM
# [7] = second compound 0.1 µM, first compound 0.0316 µM
# [8] = second compound 0.1 µM, first compound 0.1 µM
# [9] = second compound 0.1 µM, first compound 0.316 µM
# [10] = second compound 0.1 µM, first compound 1 µM
# [11] = second compound 0.1 µM, first compound 3.16 µM
# [12] = second compound 0.1 µM, first compound 10 µM
# [13] = second compound 0.316 µM, first compound 0.0316 µM
# [14] = second compound 0.316 µM, first compound 0.1 µM
# [15] = second compound 0.316 µM, first compound 0.316 µM
# [16] = second compound 0.316 µM, first compound 1 µM
# [17] = second compound 0.316 µM, first compound 3.16 µM
# [18] = second compound 0.316 µM, first compound 10 µM
# [19] = second compound 1 µM, first compound 0.0316 µM
# [20] = second compound 1 µM, first compound 0.1 µM
# [21] = second compound 1 µM, first compound 0.316 µM
# [22] = second compound 1 µM, first compound 1 µM
# [23] = second compound 1 µM, first compound 3.16 µM
# [24] = second compound 1 µM, first compound 10 µM
# [25] = second compound 3.16 µM, first compound 0.0316 µM
# [26] = second compound 3.16 µM, first compound 0.1 µM
# [27] = second compound 3.16 µM, first compound 0.316 µM
# [28] = second compound 3.16 µM, first compound 1 µM
# [29] = second compound 3.16 µM, first compound 3.16 µM
# [30] = second compound 3.16 µM, first compound 10 µM
# [31] = second compound 10 µM, first compound 0.0316 µM
# [32] = second compound 10 µM, first compound 0.1 µM
# [33] = second compound 10 µM, first compound 0.316 µM
# [34] = second compound 10 µM, first compound 1 µM
# [35] = second compound 10 µM, first compound 3.16 µM
# [36] = second compound 10 µM, first compound 10 µM
# 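Also: spheroids exposed to agents for 7 days before viability reading.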
# 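For viability, T/C in this document: percent of DMSO vehicle control viability so 100% = vehicle and 0% = no viable signal.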
structure (smiles),measurement,setting,value
C=CC(=O)N1CCN(c2nc(=O)n(-c3c(C)ccnc3C(C)C)c3nc(-c4c(O)cccc4F)c(F)cc23)C(C)C1 (stereo unspecified) + Nc1ccc(C#CCN(C(=O)Cc2ncc(C(F)(F)F)cc2C(F)(F)F)c2ccc(F)cc2)nn1,IC50,second compound 0.0316 µM,> 10 µM
same,IC50,second compound 0.1 µM,> 10 µM
same,IC50,second compound 0.316 µM,> 10 µM
same,IC50,second compound 1 µM,> 10 µM
same,IC50,second compound 3.16 µM,> 10 µM
same,IC50,second compound 10 µM,> 10 µM
same,"viability, T/C",[1],99%
same,"viability, T/C",[2],91.6%
same,"viability, T/C",[3],102%
same,"viability, T/C",[4],117%
same,"viability, T/C",[5],115%
same,"viability, T/C",[6],103%
same,"viability, T/C",[7],92.8%
same,"viability, T/C",[8],89.6%
same,"viability, T/C",[9],106%
same,"viability, T/C",[10],116%
same,"viability, T/C",[11],123%
same,"viability, T/C",[12],113%
same,"viability, T/C",[13],102%
same,"viability, T/C",[14],106%
same,"viability, T/C",[15],98.8%
same,"viability, T/C",[16],118%
same,"viability, T/C",[17],119%
same,"viability, T/C",[18],97.4%
same,"viability, T/C",[19],104%
same,"viability, T/C",[20],105%
same,"viability, T/C",[21],103%
same,"viability, T/C",[22],111%
same,"viability, T/C",[23],124%
same,"viability, T/C",[24],117%
same,"viability, T/C",[25],103%
same,"viability, T/C",[26],125%
same,"viability, T/C",[27],102%
same,"viability, T/C",[28],119%
same,"viability, T/C",[29],114%
same,"viability, T/C",[30],95.9%
same,"viability, T/C",[31],110%
same,"viability, T/C",[32],110%
same,"viability, T/C",[33],122%
same,"viability, T/C",[34],109%
same,"viability, T/C",[35],125%
same,"viability, T/C",[36],121%
CC1COCCN1c1cc(-c2ccnn2C)c2ccnc(-c3ccn[nH]3)c2n1 (stereo unspecified) + Nc1ccc(C#CCN(C(=O)Cc2ncc(C(F)(F)F)cc2C(F)(F)F)c2ccc(F)cc2)nn1,IC50,second compound 0.0316 µM,> 10 µM
same,IC50,second compound 0.1 µM,> 10 µM
same,IC50,second compound 0.316 µM,> 10 µM
same,IC50,second compound 1 µM,6.83 µM
same,IC50,second compound 3.16 µM,> 10 µM
same,IC50,second compound 10 µM,> 10 µM
same,"viability, T/C",[1],88.4%
same,"viability, T/C",[2],91.3%
same,"viability, T/C",[3],80.4%
same,"viability, T/C",[4],63.5%
same,"viability, T/C",[5],52.9%
same,"viability, T/C",[6],50%
same,"viability, T/C",[7],90.9%
same,"viability, T/C",[8],89%
same,"viability, T/C",[9],75.4%
same,"viability, T/C",[10],66.6%
same,"viability, T/C",[11],52.8%
same,"viability, T/C",[12],53.3%
same,"viability, T/C",[13],102%
same,"viability, T/C",[14],90.6%
same,"viability, T/C",[15],75.4%
same,"viability, T/C",[16],58.9%
same,"viability, T/C",[17],48.5%
same,"viability, T/C",[18],53.9%
same,"viability, T/C",[19],101%
same,"viability, T/C",[20],82.8%
same,"viability, T/C",[21],71.4%
same,"viability, T/C",[22],58%
same,"viability, T/C",[23],52.2%
same,"viability, T/C",[24],49.2%
same,"viability, T/C",[25],107%
same,"viability, T/C",[26],92.7%
same,"viability, T/C",[27],75.6%
same,"viability, T/C",[28],55.3%
same,"viability, T/C",[29],47.2%
same,"viability, T/C",[30],57%
same,"viability, T/C",[31],114%
same,"viability, T/C",[32],94.3%
same,"viability, T/C",[33],80.9%
same,"viability, T/C",[34],58%
same,"viability, T/C",[35],64.5%
same,"viability, T/C",[36],49.9%
CCc1cc2c(N3CCc4c(cc(Cn5ccnc5)cc4-c4cn(C)nc4C(F)(F)F)C3=O)ccnc2c(OC)n1 + Nc1ccc(C#CCN(C(=O)Cc2ncc(C(F)(F)F)cc2C(F)(F)F)c2ccc(F)cc2)nn1,IC50,second compound 0.0316 µM,> 10 µM
same,IC50,second compound 0.1 µM,> 10 µM
same,IC50,second compound 0.316 µM,> 10 µM
same,IC50,second compound 1 µM,> 10 µM
same,IC50,second compound 3.16 µM,> 10 µM
same,IC50,second compound 10 µM,> 10 µM
same,"viability, T/C",[1],93.3%
same,"viability, T/C",[2],87.5%
same,"viability, T/C",[3],91.8%
same,"viability, T/C",[4],89.9%
same,"viability, T/C",[5],102%
same,"viability, T/C",[6],99.6%
same,"viability, T/C",[7],88.4%
same,"viability, T/C",[8],90%
same,"viability, T/C",[9],89.4%
same,"viability, T/C",[10],98%
same,"viability, T/C",[11],101%
same,"viability, T/C",[12],100%
same,"viability, T/C",[13],86.2%
same,"viability, T/C",[14],93.5%
same,"viability, T/C",[15],93.6%
same,"viability, T/C",[16],95.4%
same,"viability, T/C",[17],106%
same,"viability, T/C",[18],99.1%
same,"viability, T/C",[19],92.5%
same,"viability, T/C",[20],91.2%
same,"viability, T/C",[21],107%
same,"viability, T/C",[22],94.7%
same,"viability, T/C",[23],106%
same,"viability, T/C",[24],98.8%
same,"viability, T/C",[25],88%
same,"viability, T/C",[26],88.5%
same,"viability, T/C",[27],96.4%
same,"viability, T/C",[28],102%
same,"viability, T/C",[29],107%
same,"viability, T/C",[30],104%
same,"viability, T/C",[31],101%
same,"viability, T/C",[32],102%
same,"viability, T/C",[33],111%
same,"viability, T/C",[34],111%
same,"viability, T/C",[35],109%
same,"viability, T/C",[36],110%

# From PubChem BioAssay AID1963835 (Molecular Pharmacology Branch, DTP, NCI, 2024)
